Results taken from publication PMC6631349 (Xenobiotica; the fate of foreign compounds in biological …, 2014).
Read-outs that look alike come from different tables or passages of the source.

Assays:
UGT1A8 = molecular target: T1, UGT1A8 (Homo sapiens, UniProt Q9HAW9); conditions: for residual activity 1A8: recombinant human UGT, mean of triplicate
T1 sequence (Q9HAW9 26-530): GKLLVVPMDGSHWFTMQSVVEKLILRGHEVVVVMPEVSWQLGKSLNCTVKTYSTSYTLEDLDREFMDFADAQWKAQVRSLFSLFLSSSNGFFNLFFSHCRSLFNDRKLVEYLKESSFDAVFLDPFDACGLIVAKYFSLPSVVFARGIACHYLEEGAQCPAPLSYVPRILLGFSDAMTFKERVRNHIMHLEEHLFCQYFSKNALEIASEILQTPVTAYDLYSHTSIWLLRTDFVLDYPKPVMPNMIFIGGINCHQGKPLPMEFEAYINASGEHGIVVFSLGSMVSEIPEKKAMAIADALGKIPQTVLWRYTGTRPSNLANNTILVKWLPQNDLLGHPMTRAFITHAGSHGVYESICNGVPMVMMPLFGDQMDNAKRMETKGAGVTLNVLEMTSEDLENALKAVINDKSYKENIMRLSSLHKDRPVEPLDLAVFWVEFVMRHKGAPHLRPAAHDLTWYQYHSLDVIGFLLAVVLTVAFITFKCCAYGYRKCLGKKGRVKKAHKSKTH

UGT2B4 = molecular target: T2, UGT2B4 (Homo sapiens, UniProt P06133); experiment: UGT2B4 supersomes-catalyzed 4-MU glucuronidation inhibition; conditions: recombinant human UGT, mean of triplicate
T2 sequence (P06133 24-528): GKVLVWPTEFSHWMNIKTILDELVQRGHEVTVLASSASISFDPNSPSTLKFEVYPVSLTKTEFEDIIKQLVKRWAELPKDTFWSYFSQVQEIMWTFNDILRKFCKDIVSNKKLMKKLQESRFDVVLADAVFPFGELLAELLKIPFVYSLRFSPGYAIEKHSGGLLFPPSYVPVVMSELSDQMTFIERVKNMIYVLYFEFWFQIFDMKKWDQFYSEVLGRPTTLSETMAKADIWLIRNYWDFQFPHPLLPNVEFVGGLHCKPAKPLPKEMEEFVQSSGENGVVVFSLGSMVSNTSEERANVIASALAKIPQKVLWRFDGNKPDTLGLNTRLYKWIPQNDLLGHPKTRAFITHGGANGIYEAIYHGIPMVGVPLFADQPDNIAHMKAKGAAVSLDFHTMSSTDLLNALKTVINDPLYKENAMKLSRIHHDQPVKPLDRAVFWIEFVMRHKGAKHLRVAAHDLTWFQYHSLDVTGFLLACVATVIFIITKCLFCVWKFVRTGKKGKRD

UGT1A9 = molecular target: T3, UGT1A9 (Homo sapiens, UniProt O60656); experiment: UGT1A9 supersomes-catalyzed 4-MU glucuronidation inhibition; conditions: for residual activity 1A9: recombinant human UGT, mean of triplicate
T3 sequence (O60656 26-530): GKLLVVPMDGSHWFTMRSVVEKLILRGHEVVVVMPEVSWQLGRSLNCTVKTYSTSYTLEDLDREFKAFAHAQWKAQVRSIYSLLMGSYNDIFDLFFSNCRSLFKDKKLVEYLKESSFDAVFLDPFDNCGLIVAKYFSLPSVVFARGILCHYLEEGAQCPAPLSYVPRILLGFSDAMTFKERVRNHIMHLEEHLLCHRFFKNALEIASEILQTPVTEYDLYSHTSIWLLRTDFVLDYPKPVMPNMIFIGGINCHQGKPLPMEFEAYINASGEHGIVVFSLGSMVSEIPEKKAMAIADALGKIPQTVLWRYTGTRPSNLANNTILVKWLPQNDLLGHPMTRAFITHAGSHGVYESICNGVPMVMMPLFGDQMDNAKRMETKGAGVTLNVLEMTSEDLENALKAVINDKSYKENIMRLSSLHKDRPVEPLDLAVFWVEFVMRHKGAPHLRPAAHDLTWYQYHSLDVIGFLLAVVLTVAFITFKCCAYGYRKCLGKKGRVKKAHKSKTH

UGT1A1 = molecular target: T4, UGT1A1 (Homo sapiens, UniProt P22309); experiment: UGT1A1 supersomes-catalyzed 4-MU glucuronidation inhibition; conditions: recombinant human UGT, mean of triplicate
T4 sequence (P22309 26-533): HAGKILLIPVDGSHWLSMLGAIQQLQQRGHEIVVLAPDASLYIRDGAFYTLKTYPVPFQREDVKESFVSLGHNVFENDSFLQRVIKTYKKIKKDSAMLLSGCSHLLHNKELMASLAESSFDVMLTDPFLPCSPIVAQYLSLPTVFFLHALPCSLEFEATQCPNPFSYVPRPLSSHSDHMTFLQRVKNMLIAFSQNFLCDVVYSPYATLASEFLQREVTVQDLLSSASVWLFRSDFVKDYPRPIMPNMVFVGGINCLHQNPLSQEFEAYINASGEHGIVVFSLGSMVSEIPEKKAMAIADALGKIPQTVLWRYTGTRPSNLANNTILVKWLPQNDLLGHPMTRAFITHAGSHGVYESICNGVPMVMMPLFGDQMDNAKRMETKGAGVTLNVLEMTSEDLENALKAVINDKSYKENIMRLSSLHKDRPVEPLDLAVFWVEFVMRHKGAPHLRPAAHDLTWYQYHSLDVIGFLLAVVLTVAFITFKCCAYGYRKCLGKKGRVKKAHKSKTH

UGT2B7 = molecular target: T5, UGT2B7 (Homo sapiens, UniProt P16662); experiment: UGT2B7 supersomes-catalyzed 4-MU glucuronidation inhibition; conditions: recombinant human UGT, mean of triplicate
T5 sequence (P16662 24-529): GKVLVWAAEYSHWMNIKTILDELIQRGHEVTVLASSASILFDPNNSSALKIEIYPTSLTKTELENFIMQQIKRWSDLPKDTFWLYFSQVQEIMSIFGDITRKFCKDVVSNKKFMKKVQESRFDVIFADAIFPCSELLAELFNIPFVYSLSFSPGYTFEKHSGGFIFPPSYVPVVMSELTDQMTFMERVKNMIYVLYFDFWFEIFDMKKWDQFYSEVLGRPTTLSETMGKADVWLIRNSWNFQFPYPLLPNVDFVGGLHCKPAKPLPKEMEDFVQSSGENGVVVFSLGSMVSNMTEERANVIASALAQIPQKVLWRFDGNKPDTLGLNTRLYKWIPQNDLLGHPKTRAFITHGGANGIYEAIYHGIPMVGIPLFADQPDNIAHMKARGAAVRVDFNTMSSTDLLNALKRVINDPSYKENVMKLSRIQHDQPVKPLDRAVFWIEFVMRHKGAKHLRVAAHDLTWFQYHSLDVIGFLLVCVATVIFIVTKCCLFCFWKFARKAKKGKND

inhibition percentage of UGT1A9 activity (UGT1A9; 50 μM)	SMILES	residual activity 1A8 (UGT1A8; 50 μM LPC components)	residual activity 2B4 (UGT2B4; 50 μM LPC components)	residual activity 1A9 (UGT1A9; 50 μM LPC components)	residual activity 1A1 (UGT1A1; 50 μM LPC components)	residual activity 2B7 (UGT2B7; 50 μM LPC components)	inhibition kinetic type towards UGT1A8 (UGT1A8; Dixon and Lineweaver-Burk plots, 4-MU glucuronidation)	residual activity 1A8 (UGT1A8; 50 μM PC components)	residual activity 2B4 (UGT2B4; 50 μM PC components)	residual activity 1A9 (UGT1A9; 50 μM PC components)	residual activity 1A1 (UGT1A1; 50 μM PC components)	residual activity 2B7 (UGT2B7; 50 μM PC components)
	CCCCCC(=O)OC[C@@H](O)COP(=O)([O-])OCC[N+](C)(C)C [LPC 6:0]	108.0%	183.6%	95.9%	176.7%	70.0%						
	CCCCCCC(=O)OCC(O)COP(=O)([O-])OCC[N+](C)(C)C (stereo not drawn) [LPC 7:0]	101.1%	183.5%	92.9%	174.9%	73.8%						
	CCCCCCCC(=O)OCC(O)COP(=O)([O-])OCC[N+](C)(C)C (stereo not drawn) [LPC 8:0]	102.7%	185.0%	99.6%	184.9%	70.1%						
	CCCCCCCCC(=O)OC[C@@H](O)COP(=O)([O-])OCC[N+](C)(C)C [LPC 9:0]	101.2%	179.1%	94.5%	179.6%	76.2%						
	CCCCCCCCCC(=O)OC[C@@H](O)COP(=O)([O-])OCC[N+](C)(C)C [LPC 10:0]	100.7%	208.4%	99.2%	170.2%	77.3%						
	CCCCCCCCCCC(=O)OC[C@@H](O)COP(=O)([O-])OCC[N+](C)(C)C [LPC 11:0]	124.0%	217.6%	104.6%	167.3%	78.0%						
	CCCCCCCCCCCC(=O)OC[C@@H](O)COP(=O)([O-])OCC[N+](C)(C)C [LPC 12:0]	89.2%	255.5%	89.2%	165.9%	72.8%						
	CCCCCCCCCCCCC(=O)OC[C@@H](O)COP(=O)([O-])OCC[N+](C)(C)C [LPC 13:0]	101.6%	239.4%	99.4%	160.6%	79.9%						
	CCCCCCCCCCCCCC(=O)OC[C@@H](O)COP(=O)([O-])OCC[N+](C)(C)C [LPC 14:0]	19.2%	217.1%	97.5%	171.3%	90.5%						
	CCCCCCCCCCCCCCC(=O)OC[C@@H](O)COP(=O)([O-])OCC[N+](C)(C)C [LPC 15:0]	1.6%	152.6%	82.8%	162.9%	43.9%						
	CCCCCCCCCCCCCCCCC(=O)OC[C@@H](O)COP(=O)([O-])OCC[N+](C)(C)C [LPC 17:0]	2.2%	333.4%	87.5%	167.6%	81.5%						
	CCCCCCCCCCCCCCCCCC(=O)OC[C@@H](O)COP(=O)([O-])OCC[N+](C)(C)C [LPC 18:0]	1.2%	280.4%	64.4%	160.5%	39.3%	competitive inhibition					
	CCCCCC(=O)OC[C@H](COP(=O)([O-])OCC[N+](C)(C)C)OC(=O)CCCCC [PC 6:0, 6:0]							116.2%	178.7%	96.1%	187.8%	70.2%
	CCCCCCC(=O)OC[C@H](COP(=O)([O-])OCC[N+](C)(C)C)OC(=O)CCCCCC [PC 7:0, 7:0]							106.1%	186.9%	137.7%	176.8%	64.5%
	CCCCCCCC(=O)OC[C@H](COP(=O)([O-])OCC[N+](C)(C)C)OC(=O)CCCCCCC [PC 8:0, 8:0]							78.3%	173.1%	180.5%	155.6%	71%
89.3%	CCCCCCCCC(=O)OC[C@H](COP(=O)([O-])OCC[N+](C)(C)C)OC(=O)CCCCCCCC [PC 9:0, 9:0]							33.2%	156.7%	10.7%	162.3%	79.6%
	CCCCCCCCCC(=O)OC[C@H](COP(=O)([O-])OCC[N+](C)(C)C)OC(=O)CCCCCCCCC [PC 10:0, 10:0]							59.3%	168.4%	158%	197.9%	86.2%
	CCCCCCCCCCC(=O)OC[C@H](COP(=O)([O-])OCC[N+](C)(C)C)OC(=O)CCCCCCCCCC [PC 11:0, 11:0]							116.8%	181.0%	97.8%	232.3%	100.5%
	CCCCCCCCCCCC(=O)OC[C@H](COP(=O)([O-])OCC[N+](C)(C)C)OC(=O)CCCCCCCCCCC [PC 12:0, 12:0]							114.1%	182.7%	84.1%	208.8%	85.8%
	CCCCCCCCCCCCC(=O)OC[C@H](COP(=O)([O-])OCC[N+](C)(C)C)OC(=O)CCCCCCCCCCCC [PC 13:0, 13:0]							114.3%	193.8%	99.2%	201.1%	81.4%
